Data published in BindingDB's records for doi:10.1016/j.bmc.2004.11.045 (Yamanouchi Pharmaceutical, 2005).
pIC50: −log10 of the molar value.

Key:
Test in all cases: HIV-1 RT Assay
[1] = target: T1, Gag-Pol polyprotein [588-1027]/[588-1147] (Human immunodeficiency virus 1, UniProt P04585)
T1 construct: 588-1027; 588-1147
Text: (§1) The IC50 of reverse transcriptase is the concentration that inhibits 50% of recombinant HIV-1 RT RNA-directed DNA polymerase activity in vitro.

[2] = target: T2, Gag-Pol polyprotein [588-1127,Y768C]/[588-1147,Y768C] (Human immunodeficiency virus 1, UniProt P04585, Y768C)
T2 construct: 588-1127; 588-1147
Text: as §1

[3] = target: T3, Gag-Pol polyprotein [588-1027,K690N]/[588-1147,K690N] (Human immunodeficiency virus 1, UniProt P04585, K690N)
T3 construct: 588-1027; 588-1147
Text: as §1

Row | Structure (SMILES) | pIC50 [1] | pIC50 [2] | pIC50 [3] | pIC50 ([1]; pH 8.4, 37 °C) | pIC50 ([3]; pH 8.4, 37 °C) | pIC50 ([2]; pH 8.4, 37 °C)
1 | Cc1c(C(C)(C)C)s/c(=N\S(=O)(=O)c2ccccc2)n1C | 5.31 | 5.29 | < 4.30 |  |  | 
2 | Cc1c(C(C)(C)C)s/c(=N\S(=O)(=O)c2cc(Cl)ccc2N)n1C [2-amino-N-[(2Z)-5-tert-butyl-3,4-dimethyl-2,3-dihydro-1,3-thiazol-2-ylidene]-5-chlorobenzene-1-sulfonamide] | 6.72 | 6.96 | 4.77 |  |  | 
3 | Cc1c(C(C)C)s/c(=N\S(=O)(=O)c2cc(F)ccc2C#N)n1C [2-cyano-N-[(2Z)-3,4-dimethyl-5-(propan-2-yl)-2,3-dihydro-1,3-thiazol-2-ylidene]-5-fluorobenzene-1-sulfonamide] | 7.04 | 5.68 | < 5.00 |  |  | 
4 | Cc1c(C(C)(C)C)s/c(=N\S(=O)(=O)c2cc(Cl)ccc2C(N)=O)n1C [2-{[(5-tert-Butyl-3,4-dimethyl-1,3-thiazol-2(3H)-ylidene)amino]sulfonyl}-4-chlorobenzamide] | < 5.00 | < 5.00 | < 5.00 |  |  | 
5 | Cc1c(C(C)C)s/c(=N\S(=O)(=O)c2cc(Br)ccc2C#N)n1C [5-Bromo-2-cyano-N-(5-isopropyl-3,4-dimethyl-1,3-thiazol-2(3H)-ylidene)benzenesulfonamide] | 7.74 | 6.59 | 5.41 |  |  | 
6 | CC(C)c1s/c(=N\S(=O)(=O)c2cc(Cl)ccc2C#N)n(C)c1Cl [5-Chloro-N-(4-chloro-5-isopropyl-3-methyl-1,3-thiazol-2(3H)-ylidene)-2-cyanobenzenesulfonamide] | 8.05 | 7.04 | 5.43 |  |  | 
7 | CC(C)c1s/c(=N\S(=O)(=O)c2cc(Br)ccc2O)n(C)c1Cl [5-bromo-N-[(2Z)-4-chloro-3-methyl-5-(propan-2-yl)-2,3-dihydro-1,3-thiazol-2-ylidene]-2-hydroxybenzene-1-sulfonamide] | 8.37 | 7.89 | 7.37 |  |  | 
8 | Cc1c(C(C)C)s/c(=N\S(=O)(=O)c2cc(Cl)ccc2C#N)n1C [5-chloro-2-cyano-N-[(2Z)-3,4-dimethyl-5-(propan-2-yl)-2,3-dihydro-1,3-thiazol-2-ylidene]benzene-1-sulfonamide] | 7.96 | 6.70 | 5.23 |  |  | 
9 | CC(C)c1s/c(=N\S(=O)(=O)c2cc(Cl)ccc2O)n(C)c1Cl [5-chloro-N-[(2Z)-4-chloro-3-methyl-5-(propan-2-yl)-2,3-dihydro-1,3-thiazol-2-ylidene]-2-hydroxybenzene-1-sulfonamide] | 8.03 | 7.68 | 6.77 |  |  | 
10 | CC(=O)Nc1ccc(Cl)cc1S(=O)(=O)/N=c1\sc(C(C)(C)C)c(C)n1C [N-(2-{[(5-tert-Butyl-3,4-dimethyl-1,3-thiazol-2(3H)-ylidene)amino]sulfonyl}-4-chlorophenyl)acetamide] | < 4.30 | < 4.30 | < 4.30 |  |  | 
11 | CC(C)c1s/c(=N\S(=O)(=O)c2cc(C#N)ccc2C#N)n(C)c1Cl [N-(4-Chloro-5-isopropyl-3-methyl-1,3-thiazol-2(3H)-ylidene)-2,5-dicyanobenzenesulfonamide] | 8.02 | 6.68 | 5.52 |  |  | 
12 | COc1ccccc1S(=O)(=O)/N=c1\sc(C(C)(C)C)c(C)n1C [N-(5-tert-Butyl-3,4-dimethyl-1,3-thiazol-2(3H)-ylidene)-2-methoxybenzenesulfonamide] |  |  |  | 4.30 | < 4.30 | 
13 | Cc1c(C(C)(C)C)s/c(=N\S(=O)(=O)c2ccc(Cl)cc2)n1C [N-(5-tert-Butyl-3,4-dimethyl-1,3-thiazol-2(3H)-ylidene)-4-chlorobenzenesulfonamide] |  |  |  | < 5.00 | < 5.00 | < 5.00
14 | Cc1c(C(C)(C)C)s/c(=N\S(=O)(=O)c2ccc(O)cc2)n1C [N-(5-tert-Butyl-3,4-dimethyl-1,3-thiazol-2(3H)-ylidene)-4-hydroxybenzenesulfonamide] | < 5.00 | < 5.00 | < 5.00 |  |  | 
15 | COc1ccc(S(=O)(=O)/N=c2\sc(C(C)(C)C)c(C)n2C)cc1 [N-(5-tert-Butyl-3,4-dimethyl-1,3-thiazol-2(3H)-ylidene)-4-methoxybenzenesulfonamide] | < 5.00 | < 5.00 | < 5.00 |  |  | 
16 | Cc1c(C(C)(C)C)s/c(=N\S(=O)(=O)c2ccc([N+](=O)[O-])cc2)n1C [N-(5-tert-Butyl-3,4-dimethyl-1,3-thiazol-2(3H)-ylidene)-4-nitrobenzenesulfonamide] |  |  |  | < 5.00 | < 5.00 | < 5.00
17 | Cc1c(C(C)(C)C)s/c(=N\S(=O)(=O)c2cc(Cl)ccc2C#N)n1C [N-(5-tert-Butyl-3,4-dimethyl-1,3-thiazol-2(3H)-ylidene)-5-chloro-2-cyanobenzenesulfonamide] | 6.74 | 7.16 | < 4.30 |  |  | 
18 | Cc1c(C(C)(C)C)s/c(=N\S(=O)(=O)c2cc(Cl)ccc2O)n1C [N-(5-tert-Butyl-3,4-dimethyl-1,3-thiazol-2(3H)-ylidene)-5-chloro-2-hydroxybenzenesulfonamide] | 7.49 | 7.96 | 5.96 |  |  | 
19 | Cc1c(C(C)(C)C)s/c(=N\S(=O)(=O)c2ccccc2Cl)n1C [N-[(2Z)-5-tert-butyl-3,4-dimethyl-2,3-dihydro-1,3-thiazol-2-ylidene]-2-chlorobenzene-1-sulfonamide] |  |  |  | < 5.00 | < 5.00 | < 5.00
20 | Cc1c(C(C)(C)C)s/c(=N\S(=O)(=O)c2ccccc2O)n1C [N-[(2Z)-5-tert-butyl-3,4-dimethyl-2,3-dihydro-1,3-thiazol-2-ylidene]-2-hydroxybenzene-1-sulfonamide] | 5.80 | 6.39 | 4.52 |  |  | 
21 | Cc1c(C(C)(C)C)s/c(=N\S(=O)(=O)c2ccccc2[N+](=O)[O-])n1C [N-[(2Z)-5-tert-butyl-3,4-dimethyl-2,3-dihydro-1,3-thiazol-2-ylidene]-2-nitrobenzene-1-sulfonamide] |  |  |  | < 4.30 | < 4.30 | 4.44
22 | Cc1c(C(C)(C)C)s/c(=N\S(=O)(=O)c2cccc(Cl)c2O)n1C [N-[(2Z)-5-tert-butyl-3,4-dimethyl-2,3-dihydro-1,3-thiazol-2-ylidene]-3-chloro-2-hydroxybenzene-1-sulfonamide] | 5.20 |  | < 4.30 |  |  | 
23 | Cc1c(C(C)(C)C)s/c(=N\S(=O)(=O)c2cccc(Cl)c2)n1C [N-[(2Z)-5-tert-butyl-3,4-dimethyl-2,3-dihydro-1,3-thiazol-2-ylidene]-3-chlorobenzene-1-sulfonamide] |  |  |  | 6.52 | 4.96 | 7.36
24 | Cc1c(C(C)(C)C)s/c(=N\S(=O)(=O)c2cccc(O)c2)n1C [N-[(2Z)-5-tert-butyl-3,4-dimethyl-2,3-dihydro-1,3-thiazol-2-ylidene]-3-hydroxybenzene-1-sulfonamide] | 5.06 | 4.85 | < 4.30 |  |  | 
25 | COc1cccc(S(=O)(=O)/N=c2\sc(C(C)(C)C)c(C)n2C)c1 [N-[(2Z)-5-tert-butyl-3,4-dimethyl-2,3-dihydro-1,3-thiazol-2-ylidene]-3-methoxybenzene-1-sulfonamide] | 5.06 |  | < 4.30 |  |  | 
26 | Cc1c(C(C)(C)C)s/c(=N\S(=O)(=O)c2cc(Cl)ccc2NS(C)(=O)=O)n1C [N-[(2Z)-5-tert-butyl-3,4-dimethyl-2,3-dihydro-1,3-thiazol-2-ylidene]-5-chloro-2-methanesulfonamidobenzene-1-sulfonamide] | < 4.30 | < 4.30 | < 4.30 |  |  | 
27 | Cc1c(C(C)(C)C)s/c(=N\S(=O)(=O)c2cc(Cl)ccc2[N+](=O)[O-])n1C [N-[(2Z)-5-tert-butyl-3,4-dimethyl-2,3-dihydro-1,3-thiazol-2-ylidene]-5-chloro-2-nitrobenzene-1-sulfonamide] | 5.62 |  | < 4.30 |  |  | 
28 | COC(=O)c1ccc(Cl)cc1S(=O)(=O)/N=c1\sc(C(C)(C)C)c(C)n1C [methyl 2-{[(2Z)-5-tert-butyl-3,4-dimethyl-2,3-dihydro-1,3-thiazol-2-ylidene]sulfamoyl}-4-chlorobenzoate] | < 5.00 | 5.00 | < 5.00 |  |  | 
29 | Cc1c(C(C)C)s/c(=N\S(=O)(=O)c2cc(C#N)ccc2C#N)n1C [thiazolidenebenzenesulfonamide deriv.] | 7.92 | 6.33 | 5.39 |  |  | 
